Broadly, the IC50 is the midpoint of a concentration-inhibition curve.

This note sets out measurements from patent US10954214B2 (Janssen Pharmaceutica NV, priority 2016, dated 2021).

Experiment [1] concerns IL10 secretion by OCI-LY3 ABC-DLBCL cells. Kind of experiment: Human IL10 Mesoscale assay (OCI-LY3). It is filed as cell-based. The settings on record: Homo sapiens, 24 h. The protocol: (§1) NFKB signaling regulates the secretion of multiple cytokines, including IL6 and IL10. Secretion of the cytokines IL6 and IL10 by TMD8 or OCI-LY3 ABC-DLBCL cells was measured using a mesoscale assay. Inhibition of NFKB signaling by MALT1 or BTK inhibitors results in a decrease of IL6/10 secretion.
(§2) TMD8 or OCI-LY3 cells were propagated in RPMI-1640 (Sigma Aldrich) supplemented with 10% fetal bovine serum (HyClone), 1 mM sodium pyruvate (Invitrogen), 2 mM L-glutamine (Sigma Aldrich) and 1% PenStrep (Sigma Aldrich). Cell passage number should not exceed 30. Cells should be kept between 0.5-2.5 million cells per mL during culturing and cells should be supplemented every 2-3 days with fresh 50 μM beta-mercaptoenthanol. No beta-mercaptoethanol was used during the mesoscale assay.
(§3) For the Mesoscale assay, 100,000 TMD8 or OCI-LY3 cells were seeded per well into black-colored 96-well plates with clear bottom (Corning #3904) and test compounds were added in 9 dilution steps (1:2) ranging from 15 μM to 58.6 nM (final DMSO concentration 0.3%). DMSO control wells were used to determine the maximum signal (High Control (HC)). Treatment with the BTK inhibitor RN486 in a dose range from 30 nM to 131 pM (9 dilutions of 1:2) served as a positive control for NFKB pathway inhibition and was used to determine the maximum inhibition (Low Control (LC)). Compounds and cells were incubated for 24 h at 37° C. and 5% CO2 (assay volume is 150 μL). After 24 h of incubation 50 μL of the supernatant was transferred to a MSD plate (V-Plex Proinflammation Panel 1 (human) kit, Mesoscale (MSD)) and incubated for 2 h with vigorous shaking (600 rpm) at room temperature. Following incubation, plates were washed 3× with PBS+0.05% Tween-20 and 25 μL detection antibody solution (IL6 & IL10 antibodies in diluent 3 (MSD)) was added per well followed by 2 h of incubation with vigorous shaking (600 rpm) at room temperature. After 3× washes with PBS+0.05% Tween-20, plates were incubated with 150 μL 2× Read Buffer T and read on SECTOR imager.

The test system of experiment [2] is IL6 secretion by OCI-LY3 ABC-DLBCL cells. Kind of experiment: Human IL6 Mesoscale assay (OCI-LY3). It is filed as cell-based. The settings on record: Homo sapiens, 24 h. The protocol:
as §1, §2, §3

Experiment [3] concerns the target full-length MALT1 protein (Strep-MALT1(1-824)-His) (Homo sapiens (Human), UniProt Q9UDY8). Kind of experiment: MALT1 Biochemical Protease Assay (Ac-LRSR-AMC substrate). The settings on record: 10 nM FL MALT1, 200 μM Ac-LRSR-AMC, 4 h at RT; read-out: MALT1_Biochemical activity (Ac-LRSR-amc) IC50. In outline: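 Full-length MALT1 pre-incubated with compounds (30 μM to 0.5 nM, 11 threefold steps) for 50 min at RT. After Ac-LRSR-AMC was added, the reaction ran 4 h at RT and AMC fluorescence was read. IC50 and Hill slope from curve fitting against no-enzyme and no-compound controls.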

Each structure is given as a SMILES string.

Sequence of full-length MALT1 protein (Strep-MALT1(1-824)-His) (Q9UDY8 whole entry): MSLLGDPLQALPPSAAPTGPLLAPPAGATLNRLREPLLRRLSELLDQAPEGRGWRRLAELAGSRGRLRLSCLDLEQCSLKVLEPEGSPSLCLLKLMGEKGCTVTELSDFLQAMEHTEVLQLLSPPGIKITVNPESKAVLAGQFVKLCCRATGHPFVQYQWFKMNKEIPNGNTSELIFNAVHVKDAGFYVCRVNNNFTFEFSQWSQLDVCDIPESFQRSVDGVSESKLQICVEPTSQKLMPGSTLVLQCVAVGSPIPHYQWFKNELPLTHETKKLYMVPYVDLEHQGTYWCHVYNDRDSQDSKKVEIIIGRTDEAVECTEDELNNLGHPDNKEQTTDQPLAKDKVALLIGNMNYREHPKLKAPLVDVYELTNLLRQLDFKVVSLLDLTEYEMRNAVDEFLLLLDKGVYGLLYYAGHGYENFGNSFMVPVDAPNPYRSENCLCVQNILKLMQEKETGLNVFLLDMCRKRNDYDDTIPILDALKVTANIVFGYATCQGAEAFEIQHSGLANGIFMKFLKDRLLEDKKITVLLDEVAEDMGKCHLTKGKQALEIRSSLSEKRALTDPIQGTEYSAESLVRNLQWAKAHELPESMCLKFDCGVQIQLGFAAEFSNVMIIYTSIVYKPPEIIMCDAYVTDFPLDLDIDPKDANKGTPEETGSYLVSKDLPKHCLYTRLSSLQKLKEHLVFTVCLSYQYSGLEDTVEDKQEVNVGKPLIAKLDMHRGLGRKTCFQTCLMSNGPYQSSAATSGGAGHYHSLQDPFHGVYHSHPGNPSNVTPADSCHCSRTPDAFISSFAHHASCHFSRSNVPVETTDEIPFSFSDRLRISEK

Regarding `O=C(Nc1cnc(-n2nccn2)c(Cl)c1)c1cnn(-c2cnc([C@H]3CCCO3)c3ccccc23)c1C(F)(F)F` (single isomer, unassigned) [Cpd 436, (*R)—N-(5-chloro-6-(2H-1,2,3-triazol-2-yl)pyridin-3-yl)-1-(1-(tetrahydrofuran-2-yl)isoquinolin-4-yl)-5-(trifluoromethyl)-1H-pyrazole-4-carboxamide], the IC50 in experiment [1] was 110 nM; in experiment [2] it was 141 nM; in experiment [3], 1320 nM.
Consider `O=C(Nc1cnc(-n2nccn2)c(Cl)c1)c1cnn(-c2cccc3nc([C@@H]4CCCO4)ccc23)c1C(F)(F)F` (single isomer, unassigned) [Cpd 441, (*S)—N-(5-chloro-6-(2H-1,2,3-triazol-2-yl)pyridin-3-yl)-1-(2-(tetrahydrofuran-2-yl)quinolin-5-yl)-5-(trifluoromethyl)-1H-pyrazole-4-carboxamide], for which the values for the IC50 in experiment [1], in experiment [2] and in experiment [3] were 891 nM, 1120 nM and 977 nM, respectively.
The matching figures for `C[C@@H](O)c1ncc(-n2ncc(C(=O)Nc3cnc(-n4nccn4)c(Cl)c3)c2C(F)(F)F)c2ccccc12` (single isomer, unassigned) [Cpd 442, (*R)—N-(5-chloro-6-(2H-1,2,3-triazol-2-yl)pyridin-3-yl)-1-(1-(1-hydroxyethyl)isoquinolin-4-yl)-5-(trifluoromethyl)-1H-pyrazole-4-carboxamide]: 112 nM, 162 nM and 62 nM.
For the molecule `C[C@H](O)c1nccc2c(-n3ncc(C(=O)Nc4cnc(-n5nccn5)c(Cl)c4)c3C(F)(F)F)cccc12` (single isomer, unassigned) [Cpd 445, (*S)—N-(5-chloro-6-(2H-1,2,3-triazol-2-yl)pyridin-3-yl)-1-(1-(1-hydroxyethyl)isoquinolin-5-yl)-5-(trifluoromethyl)-1H-pyrazole-4-carboxamide], the figures for the half-inhibitory concentration (IC50) in experiment [1], in experiment [2] and in experiment [3] were 93 nM, 186 nM and 79 nM, respectively.
Regarding `O=C(Nc1cnc(-n2nc3ccncc3n2)c(Cl)c1)c1cnn(-c2cccc3ncccc23)c1C(F)(F)F` [Cpd 162, N-(6-(2H-[1,2,3]triazolo[4,5-c]pyridin-2-yl)-5-chloropyridin-3-yl)-1-(quinolin-5-yl)-5-(trifluoromethyl)-1H-pyrazole-4-carboxamide], the IC50 in experiment [1] came to 309 nM; in experiment [2] it was 437 nM; in experiment [3] it was 363 nM.
For `O=C(Nc1cnc(-n2nnc3cnccc32)c(Cl)c1)c1cnn(-c2cccc3ncccc23)c1C(F)(F)F` [Cpd 163, N-(6-(1H-[1,2,3]triazolo[4,5-c]pyridin-1-yl)-5-chloropyridin-3-yl)-1-(quinolin-5-yl)-5-(trifluoromethyl)-1H-pyrazole-4-carboxamide], the IC50 in experiment [1] was determined as 71 nM; in experiment [2], 95 nM; in experiment [3] it was 224 nM.
`O=C(Nc1cnc(-n2nc3cccnc3n2)c(Cl)c1)c1cnn(-c2cccc3ncccc23)c1C(F)(F)F` [Cpd 164, N-(6-(2H-[1,2,3]triazolo[4,5-b]pyridin-2-yl)-5-chloropyridin-3-yl)-1-(quinolin-5-yl)-5-(trifluoromethyl)-1H-pyrazole-4-carboxamide]: the IC50 in experiment [2] turned out to be 1660 nM; in experiment [3], 282 nM.
As for `O=C(Nc1cnc(-n2nnc3cccnc32)c(Cl)c1)c1cnn(-c2cccc3ncccc23)c1C(F)(F)F` [Cpd 165, N-(6-(3H-[1,2,3]triazolo[4,5-b]pyridin-3-yl)-5-chloropyridin-3-yl)-1-(quinolin-5-yl)-5-(trifluoromethyl)-1H-pyrazole-4-carboxamide], the results for the IC50 in experiment [1], in experiment [2] and in experiment [3] were 339 nM, 447 nM and 245 nM, respectively.
In the same order, the values of `O=C(Nc1ccc(-c2n[nH]c(=O)[nH]2)c(Cl)c1)c1cnn(-c2cccc3ncccc23)c1C(F)(F)F` [Cpd 166, N-(3-chloro-4-(5-oxo-4,5-dihydro-1H-1,2,4-triazol-3-yl)phenyl)-1-(quinolin-5-yl)-5-(trifluoromethyl)-1H-pyrazole-4-carboxamide] are 479 nM, 457 nM and 229 nM.
In the case of `O=C(Nc1cnc(-n2nncc2CO)c(Cl)c1)c1cnn(-c2cccc3c(=O)[nH]ccc23)c1C(F)(F)F` [Cpd 168, N-(5-chloro-6-(5-(hydroxymethyl)-1H-1,2,3-triazol-1-yl)pyridin-3-yl)-1-(1-oxo-1,2-dihydroisoquinolin-5-yl)-5-(trifluoromethyl)-1H-pyrazole-4-carboxamide], the IC50 was determined as 44 nM in experiment [1], 123 nM in experiment [2] and 107 nM in experiment [3].
As to `Cc1nc(-n2nccn2)c(Cl)cc1NC(=O)c1cnn(-c2cnc(N)c3ccccc23)c1C(F)(F)F` [Cpd 180, 1-(1-aminoisoquinolin-4-yl)-N-(5-chloro-2-methyl-6-(2H-1,2,3-triazol-2-yl)pyridin-3-yl)-5-(trifluoromethyl)-1H-pyrazole-4-carboxamide], the 50% inhibitory concentration (IC50) in experiment [1] was 81 nM; in experiment [2], 79 nM; in experiment [3] it was 26 nM.
As to `N#Cc1c(C(=O)Nc2cnc(-n3nccn3)c(Cl)c2)cnn1-c1cccc2ncccc12` [Cpd 186, N-(5-Chloro-6-(2H-1,2,3-triazol-2-yl)pyridin-3-yl)-5-cyano-1-(quinolin-5-yl)-1H-pyrazole-4-carboxamide], the IC50 is 891 nM in experiment [1], 1120 nM in experiment [2] and 380 nM in experiment [3].
In the same order, the values of `O=C(Nc1cnc(-n2nccn2)c(Cl)c1)c1cnn(-c2cccc3ncccc23)c1Cl` [Cpd 187, 5-Chloro-N-(5-chloro-6-(2H-1,2,3-triazol-2-yl)pyridin-3-yl)-1-(quinolin-5-yl)-1H-pyrazole-4-carboxamide] are 112 nM, 162 nM and 178 nM.
In the case of `C#Cc1cc(NC(=O)c2cnn(-c3cccc4c(=O)[nH]ccc34)c2C(F)(F)F)c(C)nc1-n1nccn1` [Cpd 190, N-(5-ethynyl-2-methyl-6-(2H-1,2,3-triazol-2-yl)pyridin-3-yl)-1-(1-oxo-1,2-dihydroisoquinolin-5-yl)-5-(trifluoromethyl)-1H-pyrazole-4-carboxamide], the figures for the IC50 in experiment [1], in experiment [2] and in experiment [3] were 93 nM, 186 nM and 170 nM, respectively.
The matching figures for `CCc1nc(-n2nccn2)c(Cl)cc1NC(=O)c1cnn(-c2cccc3nccn23)c1C(F)(F)F` [Cpd 195, N-(5-chloro-2-ethyl-6-(2H-1,2,3-triazol-2-yl)pyridin-3-yl)-1-(imidazo[1,2-a]pyridin-5-yl)-5-(trifluoromethyl)-1H-pyrazole-4-carboxamide]: 71 nM, 107 nM and 324 nM.
In the same order, the values of `CCc1cc(NC(=O)c2cnn(-c3cccc4nccn34)c2C(F)(F)F)c(CC)nc1-n1nccn1` [Cpd 196, N-(2,5-diethyl-6-(2H-1,2,3-triazol-2-yl)pyridin-3-yl)-1-(imidazo[1,2-a]pyridin-5-yl)-5-(trifluoromethyl)-1H-pyrazole-4-carboxamide] are 41 nM, 83 nM and 3160 nM.
Regarding `Cc1cn2c(-n3ncc(C(=O)Nc4cnc(-n5nccn5)c(Cl)c4)c3C(F)(F)F)cccc2n1` [Cpd 199, N-(5-chloro-6-(2H-1,2,3-triazol-2-yl)pyridin-3-yl)-1-(2-methylimidazo[1,2-a]pyridin-5-yl)-5-(trifluoromethyl)-1H-pyrazole-4-carboxamide], the values for the IC50 in experiment [2] and in experiment [3] were 295 nM and 110 nM, respectively.
For the molecule `Cc1ccc(-n2ncc(C(=O)Nc3ccnc(C(F)(F)F)c3)c2C(F)(F)F)c2ccnn12` [Cpd 207, 1-(7-methylpyrazolo[1,5-a]pyridin-4-yl)-5-(trifluoromethyl)-N-(2-(trifluoromethyl)pyridin-4-yl)-1H-pyrazole-4-carboxamide], the results for the IC50 in experiment [1], in experiment [2] and in experiment [3] were 513 nM, 525 nM and 331 nM, respectively.
As for `O=C(Nc1ccnc(C(F)(F)F)c1)c1cnn(-c2cnc(N3CC(O)C3)c3sccc23)c1C(F)(F)F` [Cpd 210, 1-(7-(3-hydroxyazetidin-1-yl)thieno[2,3-c]pyridin-4-yl)-5-(trifluoromethyl)-N-(2-(trifluoromethyl)pyridin-4-yl)-1H-pyrazole-4-carboxamide], the IC50 in experiment [1] was found to be 380 nM; in experiment [2], 417 nM; in experiment [3], 72 nM.
